Source: patent US20050288299A1, “Azaindole derivatives as inhibitors of p38 kinase” (priority 2002, published 2005)
pIC50: −log10 of the molar value.

biological target: p38α kinase (Homo sapiens, UniProt Q16539); assay: p38α Flash Plate Assay (p38 kinase inhibition); assay type: biochemical; conditions: in vitro; 150 μM ATP, 0.05 mM biotinylated peptide substrate, 5 nM enzyme, 60 minute incubation at 30° Celsius; read-out: P38 α-FLASHPLATE IC50
Procedure: Assay for p38 Kinase Inhibition—p38α Flash Plate Assay
The compounds to be tested were solubilized in DMSO and diluted with water to the desired concentrations. The p38 kinase was diluted to 20 nM into a buffer containing 20 mM MOPS, pH 7.0, 25 mM beta-glycerol phosphate, 2 mg/ml gelatin, 0.5 mM EGTA (ethylene-bis-(oxyethylenenitrilo)-tetraacetic acid), and 4 mM dithiothreitol (DTT).
The reaction was carried out by mixing 20 μl test compound with 10 μl of a substrate cocktail containing 0.2 mM biotinylated peptide substrate and 0.6 mM ATP (+100 μCi/ml gamma-^33P-ATP) in a 5× assay buffer. The reaction was initiated by the addition of 10 μl of p38 kinase. Final assay conditions were 25 mM MOPS, pH 7.0, 26.25 mM beta-glycerol phosphate, 80 mM KCl, 22 mM MgCl2, 3 mM MgSO4, 1 mg/ml gelatin, 0.625 mM EGTA, 1 mM DTT, 0.05 mM peptide substrate, 150 μM ATP, and 5 nM enzyme. After a 60 minute incubation at 30° Celsius, the reaction was stopped by the addition of 10 μl per reaction of 0.25 M phosphoric acid.
A portion of the reaction was transferred to a streptavidin-coated Flash Plate (Perkin Elmer); the Flash Plate was incubated for 60 minutes at 30° Celsius and then washed 3× with PBS containing 0.01% Tween-20.
Counts incorporated are determined on a scintillation counter. Relative enzyme activity was calculated by subtracting background counts (counts measured in the absence of enzyme) from each result, and comparing the resulting counts to those obtained in the absence of inhibitor. IC50 values were determined with curve-fitting plots available with common software packages. The IC50 was expressed as the concentration of compound which inhibited the enzyme activity by 50%.

p38α kinase, sequence (Q16539 whole entry): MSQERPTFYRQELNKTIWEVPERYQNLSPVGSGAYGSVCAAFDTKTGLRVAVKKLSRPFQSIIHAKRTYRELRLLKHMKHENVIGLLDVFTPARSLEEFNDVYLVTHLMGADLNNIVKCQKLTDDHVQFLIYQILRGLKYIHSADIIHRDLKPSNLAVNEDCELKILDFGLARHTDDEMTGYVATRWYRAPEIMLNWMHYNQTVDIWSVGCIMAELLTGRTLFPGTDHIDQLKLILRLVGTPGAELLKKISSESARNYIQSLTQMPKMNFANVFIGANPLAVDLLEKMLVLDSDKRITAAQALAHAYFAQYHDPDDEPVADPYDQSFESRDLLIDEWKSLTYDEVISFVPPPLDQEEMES

Structure (SMILES)	pIC50
CCOc1nc2[nH]cc(C(=O)C(N)=O)c2cc1C(=O)N1C[C@H](C)N(Cc2ccc(F)cc2)C[C@H]1C [compound 35]	7.70
COc1nc2[nH]cc(C(=O)C(=O)N(C)C)c2cc1C(=O)N1C[C@H](C)N(C(c2ccccc2)c2ccccc2)C[C@H]1C [compound 22]	7.15
CNC(=O)C(=O)c1cn(Cc2ccc(OC)cc2)c2nc(OC)c(C(=O)N3C[C@H](C)N(Cc4ccc(F)cc4)C[C@H]3C)cc12 [compound 39]	6.21
COc1nc2[nH]cc(C(=O)C(=O)NC3CCCC3)c2cc1C(=O)N1C[C@H](C)N(C(c2ccccc2)c2ccccc2)C[C@H]1C [compound 25]	6.89
CCOc1nc2[nH]cc(C(=O)C(N)=O)c2cc1C(=O)N1CCC(Cc2ccc(F)cc2)CC1 [compound 37]	7.17
COc1nc2[nH]cc(C(=O)C(N)=O)c2cc1C(=O)N1C[C@H](C)N(Cc2ccc(F)cc2)C[C@H]1C [compound 30]	8.00
COc1nc2[nH]cc(C(=O)C(=O)N3CCCC3)c2cc1C(=O)N1C[C@H](C)N(Cc2ccc(F)cc2)C[C@H]1C [No. 5, 1-{5-[4-(4-Fluoro-benzyl)-2R,5S-dimethyl-piperazine-1-carbonyl]-6-methoxy-1H-pyrrolo[2,3-b]pyridin-3-yl}-2-pyrrolidin-1-yl-ethane-1,2-dione]	7.52
CCOc1nc2[nH]cc(C(=O)C(=O)NC)c2cc1C(=O)N1C[C@H](C)N(Cc2ccc(F)cc2)C[C@H]1C [compound 34]	7.52
COc1nc2[nH]cc(C(=O)C(F)(F)F)c2cc1C(=O)N1CCC(Cc2ccc(F)cc2)CC1 [compound 26]	7.02
COc1nc2[nH]cc(C(=O)C(=O)O)c2cc1C(=O)N1CCC(Cc2ccc(F)cc2)CC1 [compound 33]	7.82
COc1nc2c(cc1C(=O)N1C[C@H](C)N(Cc3ccc(F)cc3)C[C@H]1C)c(C(=O)C(N)=O)cn2C [compound 41]	7.70
CCNC(=O)C(=O)c1c[nH]c2nc(OC)c(C(=O)N3CCC(Cc4ccc(F)cc4)CC3)cc12 [compound 16]	7.41
COc1nc2[nH]cc(C(=O)C(=O)N3CCCC3)c2cc1C(=O)N1C[C@H](C)N(C(c2ccccc2)c2ccccc2)C[C@H]1C [compound 23]	6.92
CNC(=O)C(=O)c1c[nH]c2nc(OC)c(C(=O)N3C[C@H](C)N(C(c4ccccc4)c4ccccc4)C[C@H]3C)cc12 [compound 24]	7.38
CNC(=O)C(=O)c1c[nH]c2nc(OC)c(C(=O)N3CCN([C@H](C)c4ccc(F)cc4)C[C@H]3C)cc12 [compound 32]	7.52
COc1nc2[nH]cc(C(=O)C(=O)N(C)C)c2cc1C(=O)N1C[C@H](C)N(Cc2ccc(F)cc2)C[C@H]1C [compound 19]	8.09
COc1ccc(Cn2ccc3cc(C(=O)N4C[C@H](C)N(Cc5ccc(F)cc5)C[C@H]4C)c(OC)nc32)cc1 [compound 38]	5.82
COc1nc2[nH]c(C)c(C(=O)C(=O)N3CCCC3)c2cc1C(=O)N1CCC(Cc2ccc(F)cc2)CC1 [compound 15]	7.42
CNC(=O)C(=O)c1c[nH]c2nc(OC)c(C(=O)N3C[C@H](C)N(Cc4ccc(F)cc4)C[C@H]3C)cc12 [compound 18]	7.70
COc1nc2[nH]cc(C(=O)C(N)=O)c2cc1C(=O)N1CCN(Cc2ccc(F)cc2)C[C@H]1C [compound 31]	7.00
Cc1nc2[nH]ccc2cc1C(=O)N1C[C@H](C)N(Cc2ccc(F)cc2)C[C@H]1C [compound 40]	6.38
CNC(=O)C(=O)c1cn(C)c2nc(OC)c(C(=O)N3C[C@H](C)N(Cc4ccc(F)cc4)C[C@H]3C)cc12 [compound 42]	7.70
CCOc1nc2[nH]cc(C(=O)C(=O)NC)c2cc1C(=O)N1CCC(Cc2ccc(F)cc2)CC1 [compound 36]	7.19
COc1nc2[nH]cc(C(=O)C(N)=O)c2cc1C(=O)N1CCC(Cc2ccc(F)cc2)CC1 [compound 17]	7.24
CCN(C)C(=O)C(=O)c1c[nH]c2nc(OC)c(C(=O)N3C[C@H](C)N(Cc4ccc(F)cc4)C[C@H]3C)cc12 [compound 20]	7.92

Now from value to compound:

pIC50	Structure (SMILES)
7.70	COc1nc2c(cc1C(=O)N1C[C@H](C)N(Cc3ccc(F)cc3)C[C@H]1C)c(C(=O)C(=O)N(C)OC)cn2C [compound 45]
7.01	CNC(=O)C(=O)c1c[nH]c2cc(OC)c(C(=O)N3C[C@H](C)N(Cc4ccc(F)cc4)C[C@H]3C)nc12 [compound 76]
7.30	COc1nc2c(cc1C(=O)N1C[C@H](C)N(Cc3ccc(F)cc3)C[C@H]1C)c(C(=O)C(=O)N1CCCC1)cn2C [compound 46]
7.01	COc1cc2[nH]ccc2nc1C(=O)N1C[C@H](C)N(Cc2ccc(F)cc2)C[C@H]1C [compound 74]
7.52	CCNC(=O)C(=O)c1c[nH]c2nc(OCC)c(C(=O)N3C[C@H](C)N(Cc4ccc(F)cc4)C[C@H]3C)cc12 [compound 57]
6.12	COC(=O)C(=O)c1c[nH]c2ccc(C(=O)N3C[C@H](C)N(Cc4ccc(F)cc4)C[C@H]3C)nc12 [compound 68]
7.40	COCn1cc(C(=O)C(=O)N2CCCC2)c2cc(C(=O)N3C[C@H](C)N(Cc4ccc(F)cc4)C[C@H]3C)c(OC)nc21 [compound 56]
7.30	CNC(=O)C(=O)c1cn(COC)c2nc(OC)c(C(=O)N3C[C@H](C)N(Cc4ccc(F)cc4)C[C@H]3C)cc12 [compound 54]
6.12	C[C@@H]1CN(Cc2ccc(F)cc2)[C@@H](C)CN1C(=O)c1ccc2[nH]ccc2n1 [compound 67]
7.15	CNC(=O)C(=O)c1c[nH]c2nc(C)c(C(=O)N3C[C@H](C)N(Cc4ccc(F)cc4)C[C@H]3C)cc12 [compound 62]
7.85	C[C@@H]1CN(Cc2ccc(F)cc2)[C@@H](C)CN1C(=O)c1nc2c(C(=O)C(=O)O)c[nH]c2cc1Cl [compound 72]
7.47	COC(=O)C(=O)c1c[nH]c2cc(Cl)c(C(=O)N3C[C@H](C)N(Cc4ccc(F)cc4)C[C@H]3C)nc12 [compound 71]
7.52	Cc1nc2[nH]cc(C(=O)C(=O)N(C)C)c2cc1C(=O)N1C[C@H](C)N(Cc2ccc(F)cc2)C[C@H]1C [compound 63]
7.30	CCOc1nc2[nH]cc(C(=O)C(=O)NC(C)C)c2cc1C(=O)N1C[C@H](C)N(Cc2ccc(F)cc2)C[C@H]1C [compound 58]
7.10	Cc1nc2[nH]cc(C(=O)C(N)=O)c2cc1C(=O)N1C[C@H](C)N(Cc2ccc(F)cc2)C[C@H]1C [compound 66]
7.15	CCNC(=O)C(=O)c1cn(C)c2nc(OC)c(C(=O)N3C[C@H](C)N(Cc4ccc(F)cc4)C[C@H]3C)cc12 [compound 44]

pIC50	Structure (SMILES)
6.80	Cc1nc2c(ccn2C)cc1C(=O)N1C[C@H](C)N(Cc2ccc(F)cc2)C[C@H]1C [compound 60]
7.52	CCOc1nc2[nH]cc(C(=O)C(=O)N3CCCC3)c2cc1C(=O)N1C[C@H](C)N(Cc2ccc(F)cc2)C[C@H]1C [compound 59]
7.40	CONC(=O)C(=O)c1cn(C)c2nc(OC)c(C(=O)N3C[C@H](C)N(Cc4ccc(F)cc4)C[C@H]3C)cc12 [compound 50]
7.70	COCn1cc(C(=O)C(=O)N(C)C)c2cc(C(=O)N3C[C@H](C)N(Cc4ccc(F)cc4)C[C@H]3C)c(OC)nc21 [compound 55]
7.70	CCNC(=O)C(=O)c1c[nH]c2nc(OC)c(C(=O)N3C[C@H](C)N(Cc4ccc(F)cc4)C[C@H]3C)cc12 [compound 47]
7.22	CCNC(=O)C(=O)c1cn(COC)c2nc(OC)c(C(=O)N3C[C@H](C)N(Cc4ccc(F)cc4)C[C@H]3C)cc12 [compound 51]
7.30	COc1nc2[nH]cc(C(=O)C(=O)NC(C)C)c2cc1C(=O)N1C[C@H](C)N(Cc2ccc(F)cc2)C[C@H]1C [compound 48]
7.10	CCNC(=O)C(=O)c1c[nH]c2nc(C)c(C(=O)N3C[C@H](C)N(Cc4ccc(F)cc4)C[C@H]3C)cc12 [compound 64]
7.10	Cc1nc2[nH]cc(C(=O)C(=O)N3CCCC3)c2cc1C(=O)N1C[C@H](C)N(Cc2ccc(F)cc2)C[C@H]1C [compound 65]
7.70	CNC(=O)C(=O)c1c[nH]c2cc(Cl)c(C(=O)N3C[C@H](C)N(Cc4ccc(F)cc4)C[C@H]3C)nc12 [compound 73]
8.00	COc1nc2c(cc1C(=O)N1C[C@H](C)N(Cc3ccc(F)cc3)C[C@H]1C)c(C(=O)C(=O)N(C)C)cn2C [compound 43]
7.52	COCn1cc(C(=O)C(N)=O)c2cc(C(=O)N3C[C@H](C)N(Cc4ccc(F)cc4)C[C@H]3C)c(OC)nc21 [compound 53]
6.22	CNC(=O)C(=O)c1c[nH]c2ccc(C(=O)N3C[C@H](C)N(Cc4ccc(F)cc4)C[C@H]3C)nc12 [compound 70]
7.05	CNC(=O)C(=O)c1cn(C)c2nc(C)c(C(=O)N3C[C@H](C)N(Cc4ccc(F)cc4)C[C@H]3C)cc12 [compound 61]
7.22	COc1nc2c(cc1C(=O)N1C[C@H](C)N(Cc3ccc(F)cc3)C[C@H]1C)c(C(=O)C(=O)NC(C)C)cn2C [compound 49]
6.15	C[C@@H]1CN(Cc2ccc(F)cc2)[C@@H](C)CN1C(=O)c1ccc2[nH]cc(C(=O)C(=O)O)c2n1 [compound 69]
